Experimental data reported in the NIST ThermoML archive (doi:10.1021/acs.jced.6b00916).
Values joined by “and” are separate entries in the source; they are usually repeats but may differ in a detail not shown here. Identical values can stand only once.

Conditions: Liquid, Closed cell (Static) method

FC(F)(F)/C=C/Cl [(E)-1-chloro-3,3,3-trifluoroprop-1-ene]
Conditions	vapor or sublimation pressure
234.15 K	7.2 kPa
237.15 K	8.5 kPa
240.15 K	10 kPa
243.15 K	11.7 kPa
246.15 K	13.7 kPa
249.15 K	16 kPa
252.15 K	18.6 kPa
255.15 K	21.6 kPa
258.15 K	25 kPa
261.15 K	28.8 kPa
264.15 K	33.1 kPa
267.15 K	38 kPa
270.15 K	43.4 kPa
273.15 K	49.4 kPa
276.15 K	56.1 kPa
279.15 K	63.6 kPa
282.15 K	71.7 kPa
285.15 K	80.7 kPa
288.15 K	90.6 kPa
291.15 K	101.7 kPa
293.15 K	108.8 kPa
294.15 K	113.6 kPa
295.15 K	117.2 kPa
297.15 K	126 kPa and 126.6 kPa and 126.4 kPa
299.15 K	135.1 kPa
300.15 K	140.5 kPa
301.15 K	144.9 kPa
303.15 K	155.3 kPa and 155.9 kPa
305.15 K	166.3 kPa
306.15 K	172.6 kPa
307.15 K	177.8 kPa
309.15 K	190.1 kPa and 190.6 kPa
311.15 K	202.9 kPa
312.15 K	210 kPa
313.15 K	216.1 kPa
315.15 K	230.1 kPa and 230.9 kPa
317.15 K	245 kPa
318.15 K	253.5 kPa
319.15 K	260.7 kPa
321.15 K	277.1 kPa and 277.7 kPa
323.15 K	296.3 kPa and 294.3 kPa
324.15 K	303.6 kPa
325.15 K	312.2 kPa
327.15 K	331 kPa and 331.3 kPa
329.15 K	350.5 kPa
330.15 K	361 kPa
331.15 K	371 kPa
333.15 K	392.5 kPa and 392.6 kPa
335.15 K	413.9 kPa
336.15 K	426.2 kPa
337.15 K	437.2 kPa
339.15 K	461.2 kPa and 461.9 kPa
341.15 K	486.3 kPa
342.15 K	499.8 kPa
343.15 K	513.2 kPa
345.15 K	540.4 kPa and 540 kPa
347.15 K	568.5 kPa
348.15 K	582.7 kPa
349.15 K	597.9 kPa
351.15 K	628.7 kPa and 628.1 kPa
353.15 K	660.4 kPa
354.15 K	675.8 kPa
357.15 K	726.3 kPa
360.15 K	779.6 kPa
363.15 K	835.8 kPa
366.15 K	894.8 kPa
369.15 K	957.1 kPa
372.15 K	1022.5 kPa
375.15 K	1091.3 kPa
